Tests used:
[1] = target: T1, IRAK1 (Homo sapiens (Human), UniProt P51617); experiment: Adapta kinase assay, IRAK1; assay type: biochemical; conditions: Adapta kinase assay format
From the text: (§1) The IRAK1 and IRAK 4 IC50 values for various compounds disclosed herein generated from an Adapta® kinase assay format, and a Z′-LYTE™ kinases assay format, respectively, are shown in Table 1.

[2] = target: T2, IRAK4 (Homo sapiens (Human), UniProt Q9NWZ3); experiment: Z'-LYTE kinase assay, IRAK4; assay type: biochemical; conditions: Z'-LYTE kinase assay format
T2 sequence (Q9NWZ3 whole entry): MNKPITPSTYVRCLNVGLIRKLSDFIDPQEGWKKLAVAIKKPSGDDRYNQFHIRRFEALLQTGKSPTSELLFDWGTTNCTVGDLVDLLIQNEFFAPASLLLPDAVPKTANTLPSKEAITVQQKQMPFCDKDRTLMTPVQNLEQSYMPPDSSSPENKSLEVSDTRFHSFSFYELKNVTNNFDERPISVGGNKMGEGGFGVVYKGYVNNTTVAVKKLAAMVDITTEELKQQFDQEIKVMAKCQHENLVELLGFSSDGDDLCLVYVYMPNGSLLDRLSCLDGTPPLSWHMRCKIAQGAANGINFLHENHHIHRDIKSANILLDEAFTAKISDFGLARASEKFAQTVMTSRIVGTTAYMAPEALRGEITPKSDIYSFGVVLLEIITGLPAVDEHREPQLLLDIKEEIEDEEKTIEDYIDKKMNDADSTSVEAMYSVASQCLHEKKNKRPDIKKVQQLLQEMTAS
From the text: as §1

[3] = target: T2, IRAK4; experiment: Immunoblotting, IRAK4 degradation in BCWM.1 cells; assay type: cell-based; conditions: overnight treatment
Experimental: (§2) The degradation of IRAK1 or IRAK4 proteins in BCWM.1 cells was determined by immunoblotting using BCWM.1 total cell lysates prepared following overnight treatment with IRAK1/4 degraders or inhibitors using anti-IRAK1 and anti-IRAK4 antibodies (Cell Signaling Technologies, Danvers Mass.). Anti-GAPDH antibody (Santa Cruz Biotechnology) was used for determination of protein loading.

[4] = target: T1, IRAK1; experiment: Immunoblotting, IRAK1 degradation in BCWM.1 cells; assay type: cell-based; conditions: overnight treatment
Experimental: as §2

[5] = concentrations as high as 10 μM

T1 sequence (P51617 whole entry): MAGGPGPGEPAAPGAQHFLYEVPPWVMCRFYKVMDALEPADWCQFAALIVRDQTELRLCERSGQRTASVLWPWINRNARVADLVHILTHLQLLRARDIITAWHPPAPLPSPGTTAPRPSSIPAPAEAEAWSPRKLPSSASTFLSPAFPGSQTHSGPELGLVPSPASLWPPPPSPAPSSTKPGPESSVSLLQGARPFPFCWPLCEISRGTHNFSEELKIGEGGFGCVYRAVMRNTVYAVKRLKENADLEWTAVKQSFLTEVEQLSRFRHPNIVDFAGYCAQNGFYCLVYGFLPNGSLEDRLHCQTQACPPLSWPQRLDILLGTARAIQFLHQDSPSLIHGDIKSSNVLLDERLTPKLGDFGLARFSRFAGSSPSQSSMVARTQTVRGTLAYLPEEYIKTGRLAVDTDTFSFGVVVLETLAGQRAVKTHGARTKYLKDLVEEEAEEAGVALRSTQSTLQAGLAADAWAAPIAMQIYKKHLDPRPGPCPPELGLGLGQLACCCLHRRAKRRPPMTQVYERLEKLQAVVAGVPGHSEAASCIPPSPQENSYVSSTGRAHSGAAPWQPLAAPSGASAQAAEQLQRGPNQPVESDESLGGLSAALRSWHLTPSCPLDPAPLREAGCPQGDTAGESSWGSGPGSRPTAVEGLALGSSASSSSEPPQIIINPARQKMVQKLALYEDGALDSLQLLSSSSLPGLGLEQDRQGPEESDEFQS

Structure (SMILES)	IC50 [1] [nM]	IC50 [2] [nM]	also measured
O=C1CCC(N2C(=O)c3cccc(NCCOCCOCCOCCOCCC(=O)N4CCC(c5cc(NC(=O)c6cccc(-c7ccn[nH]7)n6)n(-c6ccccn6)n5)CC4)c3C2=O)C(=O)N1 (stereo not drawn) [Compound 1, N-(3-(1-(1-((2-(2,6-dioxopiperidin-3-yl)-1,3-dioxoisoindolin-4-yl)amino)-3,6,9,12-tetraoxapentadecan-15-oyl)piperidin-4-yl)-1-(pyridin-2-yl)-1H-pyrazol-5-yl)-6-(1H-pyrazol-5-yl)picolinamide]	43	16	degradation of IRAK4 protein ([3]; FIG. 4): degraded; degradation of IRAK1 protein ([4]; FIG. 4): degraded
O=C1CCC(N2C(=O)c3cccc(NCCOCCOCCC(=O)N4CCC(c5cc(NC(=O)c6cccc(-c7ccn[nH]7)n6)n(-c6ccccn6)n5)CC4)c3C2=O)C(=O)N1 (stereo not drawn) [Compound 2]	42	44	
O=C1CCC(N2Cc3c(NCCOCCOCCC(=O)N4CCC(c5cc(NC(=O)c6cccc(-c7ccn[nH]7)n6)n(-c6ccccn6)n5)CC4)cccc3C2=O)C(=O)N1 (stereo not drawn) [Compound 3, N-(3-(1-(3-(2-(2-((2-(2,6-dioxopiperidin-3-yl)-1-oxoisoindolin-4-yl)amino)ethoxy)ethoxy)propanoyl)piperidin-4-yl)-1-(pyridin-2-yl)-1H-pyrazol-5-yl)-6-(1H-pyrazol-5-yl)picolinamide]	40	18	
O=C1CCC(N2C(=O)c3cccc(OCCCCCCCCC(=O)N4CCC(c5cc(NC(=O)c6cccc(-c7ccn[nH]7)n6)n(-c6ccccn6)n5)CC4)c3C2=O)C(=O)N1 (stereo not drawn) [Compound 4, N-(3-(1-(9-((2-(2,6-dioxopiperidin-3-yl)-1,3-dioxoisoindolin-4-yl)oxy)nonanoyl)piperidin-4-yl)-1-(pyridin-2-yl)-1H-pyrazol-5-yl)-6-(1H-pyrazol-5-yl)picolinamide]	212	142	
CN1C(=O)CCC(N2C(=O)c3cccc(NCCOCCOCCOCCOCCC(=O)N4CCC(c5cc(NC(=O)c6cccc(-c7ccn[nH]7)n6)n(-c6ccccn6)n5)CC4)c3C2=O)C1=O (stereo not drawn) [Compound C1]			degradation of IRAK4 protein [3, 5]: no degradation; degradation of IRAK1 protein [4, 5]: no degradation

Continued, in another order:

IC50 [1] [nM]	IC50 [2] [nM]	Structure (SMILES)	also measured
7	3	CC(C)N1CCC(c2cc(NC(=O)c3cccc(-c4ccn[nH]4)n3)n(-c3ccccn3)n2)CC1 [TL1, reference compound]	effect on IRAK4 protein levels ([3]; concentration of 10 μM): no effect; effect on IRAK1 protein levels ([4]; concentration of 10 μM): no effect
9	> 10000	C=CC(=O)Nc1cccc(C(=O)Nc2ccc(NC(=O)c3cccc(-c4ccn[nH]4)n3)cc2)c1 [TL2, reference compound]	
